Experimental data reported in article PMC10655782 (Alzheimer's & Dementia : Translational Research & Clinical …, 2023).

Assays:
[1] = biological target: T1, HiBit‐SHIP1 (full‐length human SHIP1) (Homo sapiens, UniProt Q92835); experiment: SplitLuc cellular thermal shift assay; assay type: cell-based; details: for CETSA % (percent luminescence at the highest dose): highest dose (100 μM); for CETSA TE (target engagement): significant if difference from control at highest dose >3SD
T1 sequence (Q92835 1-1189): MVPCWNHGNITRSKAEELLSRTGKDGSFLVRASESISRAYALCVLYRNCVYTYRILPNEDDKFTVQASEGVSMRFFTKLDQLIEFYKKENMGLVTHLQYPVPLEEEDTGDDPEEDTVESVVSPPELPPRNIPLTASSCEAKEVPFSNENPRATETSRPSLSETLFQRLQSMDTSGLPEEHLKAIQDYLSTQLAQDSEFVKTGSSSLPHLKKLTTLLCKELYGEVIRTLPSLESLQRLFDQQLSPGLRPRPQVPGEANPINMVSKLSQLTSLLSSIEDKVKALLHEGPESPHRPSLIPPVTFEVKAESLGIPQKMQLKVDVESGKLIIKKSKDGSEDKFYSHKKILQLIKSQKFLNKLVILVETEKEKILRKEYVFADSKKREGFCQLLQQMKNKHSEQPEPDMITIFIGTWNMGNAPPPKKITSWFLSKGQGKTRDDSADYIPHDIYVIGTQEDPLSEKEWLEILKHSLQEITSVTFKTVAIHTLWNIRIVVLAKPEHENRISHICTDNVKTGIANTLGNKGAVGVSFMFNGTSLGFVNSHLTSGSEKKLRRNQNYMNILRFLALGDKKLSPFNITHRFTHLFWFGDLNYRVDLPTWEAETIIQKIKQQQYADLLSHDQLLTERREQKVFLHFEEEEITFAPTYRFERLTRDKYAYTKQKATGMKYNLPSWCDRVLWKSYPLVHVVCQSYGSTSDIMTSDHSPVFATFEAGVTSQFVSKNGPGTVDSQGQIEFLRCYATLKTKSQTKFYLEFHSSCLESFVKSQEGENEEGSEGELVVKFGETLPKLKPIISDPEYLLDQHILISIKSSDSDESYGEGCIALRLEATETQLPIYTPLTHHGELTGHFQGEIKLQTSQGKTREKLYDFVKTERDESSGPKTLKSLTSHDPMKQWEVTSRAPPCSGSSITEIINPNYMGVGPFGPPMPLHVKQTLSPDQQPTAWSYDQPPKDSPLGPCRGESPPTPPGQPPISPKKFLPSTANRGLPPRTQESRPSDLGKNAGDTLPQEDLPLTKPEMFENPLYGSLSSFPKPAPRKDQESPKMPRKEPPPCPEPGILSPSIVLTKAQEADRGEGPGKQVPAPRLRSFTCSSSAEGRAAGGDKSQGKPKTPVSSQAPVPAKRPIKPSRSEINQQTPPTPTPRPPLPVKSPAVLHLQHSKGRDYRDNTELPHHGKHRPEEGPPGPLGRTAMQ

BV2 cells = experiment: High‐content imaging assay; assay type: cell-based, mouse
HMC3 cells = experiment: High‐content imaging assay; assay type: cell-based
human SHIP1 Ptase‐C2 = biological target: T2, human SHIP1 Ptase‐C2 (Homo sapiens, UniProt Q92835); experiment: Malachite green enzyme assay, hSHIP1^395‐898 Ptase‐C2, substrate PtdIns; assay type: biochemical
T2 sequence (Q92835 395-898): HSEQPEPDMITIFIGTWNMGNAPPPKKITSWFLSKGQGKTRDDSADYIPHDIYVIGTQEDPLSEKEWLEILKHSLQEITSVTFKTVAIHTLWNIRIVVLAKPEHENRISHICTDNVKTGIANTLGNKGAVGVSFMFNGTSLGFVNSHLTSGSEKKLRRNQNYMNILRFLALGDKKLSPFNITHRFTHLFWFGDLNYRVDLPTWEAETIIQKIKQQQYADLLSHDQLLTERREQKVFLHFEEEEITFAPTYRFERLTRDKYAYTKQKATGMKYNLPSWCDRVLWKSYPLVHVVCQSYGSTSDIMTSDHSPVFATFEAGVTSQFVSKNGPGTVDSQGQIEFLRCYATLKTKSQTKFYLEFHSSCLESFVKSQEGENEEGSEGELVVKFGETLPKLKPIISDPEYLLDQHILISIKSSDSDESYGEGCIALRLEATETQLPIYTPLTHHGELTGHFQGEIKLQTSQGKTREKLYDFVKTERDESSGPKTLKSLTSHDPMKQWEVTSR

primary mouse microglia = experiment: High‐content imaging phagocytosis assay in primary mouse microglia; assay type: cell-based

AC50 [1] [µM] | CETSA % (percent luminescence at the highest dose) [1] | CETSA TE (target engagement) [1] | IC50 (human SHIP1 Ptase‐C2) [µM] | EC50 (primary mouse microglia; Mus musculus, Microglia, read-out: phagocytosis EC50) [µM] | SMILES | cellular phenotype in high‐content imaging (in words) (BV2 cells) | cellular phenotype in high‐content imaging (in words) (HMC3 cells) | increased phagocytosis (primary mouse microglia; primary mouse microglia from neonate mice) [fold]
46 ± 5 | 30 ± 7 (2) % | Yes | 18.6 | – | CC(=O)C1=C(C)Nc2sc(C(=O)c3ccc(Cl)c(Cl)c3)c(N)c2C1c1cccnc1 (stereo not shown) [Compound 2] | inactive | inactive | –
– | – | – | 201 | – | CC(C)CCC[C@@H](C)[C@H]1CC[C@H]2[C@@H]3CCC4C[C@H](N)CC[C@]4(C)[C@H]3CC[C@]12C (stereo partly drawn) [Compound 13, 3α‐aminocholestane, reference compound] | – | – | –
– | 27 ± 15 (3) % | Yes | 251 | 0.54 | Clc1ccc(COc2cncc(-c3cnn(C4CCNCC4)c3)c2)c(Cl)c1 [Compound 23, 3‐((2,4‐Dichlorobenzyl)oxy)‐5‐(1‐(piperidin‐4‐yl)‐1H‐pyrazol‐4‐yl)pyridine, reference compound] | – | – | 1.5
173 | 63 ± 12 (2) % | Yes | 26.8 | – | CC(C)c1ccc(C2C(C#N)=C3N=C(N)c4ccccc4N3C3=C2C(=O)CCC3)cc1 (stereo not shown) [Compound 3] | – | – | –
